Results from US11752111B2, “Use of cannabidivarin in the treatment of autism spectrum disorder, associated disorders and schizophrenia” (GW Research Limited, priority 2016, dated 2023).

What was measured:
PCP-treated rats [1] = assay: Novel object recognition test, sub-chronic PCP model of schizophrenia; assay type: in vivo, rat; settings: risperidone 0.1 mg/kg i.p. 60 min prior to testing
Description: (§1) Female hooded-Lister rats were used for this experiment. Rats were housed in groups of 5 under standard laboratory conditions under a 12 hr light: dark cycle, lights on at 0700 hr. Testing was carried out in the light phase.
(§2) Rats were randomly assigned to two treatment groups and treated with vehicle, n=20 (distilled water, i.p.) or Phencyclidine hydrochloride (PCP), n=100 (2 mg/kg, i.p. twice daily for 7-days). PCP was dissolved in distilled water. This was followed by a 7-day wash out period before the rats were tested following acute treatment with CBDV, risperidone or vehicle.
(§3) Risperidone (0.1 mg/kg) was dissolved in a minimum volume of acetic acid, made up to volume with distilled water and pH adjusted to 6 with 0.1M NaOH and administered via the i.p. route in a volume of 1 ml/kg, 60 min prior to testing.
(§4) CBDV at 2, 10 or 20 mg/kg was dissolved in 2:1:17 (Ethanol:Cremofor:Saline 0.9%) and administered via the i.p. route in a volume of 5 ml/kg, 60 min prior to testing.
Rats were allowed to habituate to the empty test box and the behavioural test room environment for 1h on day 1. Prior to behavioural testing on day 2 rats are given a further 3 min habituation.
Following the 3 min habituation period, the rats are given two 3 min trials (T1 and T2) which are separated by a 1 min inter-trial interval in the home cage during which the objects are changed. Behaviour in all trials was recorded on video for subsequent blind scoring.
In this trial, the animals are allowed to explore two identical objects (A1 and A2) for 3 min.
In this trial, the animals explore a familiar object (A) from T1 and a novel object (B) for 3 min. The familiar object presented during T2 is a duplicate of the object presented in T1 in order to avoid any olfactory trails.
The object exploration is defined by animals licking, sniffing or touching the object with the forepaws whilst sniffing, but not leaning against, turning around, standing or sitting on the object. The exploration time (s) of each object (A, B, familiar and novel) in each trial are recorded using two stopwatches and the following factors are calculated:
Discrimination index (DI), which is calculated as shown below: […]

PCP-treated rats [2] = assay: Social interaction test, sub-chronic PCP model of schizophrenia; assay type: in vivo, rat
Description: as §1, §2, §3, §4
The social interaction test is performed in an open-field comprising a square box made of Plexiglas (52×52×31 cm) placed 27 cm above the floor on a moveable trolley. The floor of the box is white with black gridlines forming 9 identical squares on it. All other walls are black. A video camera connected to a video recorder and monitor is positioned above the box. The object used for the test consists of a heavy structure made of metal that cannot be displaced by the animals.
The rats were habituated to the test environment and arena prior to the test day. Habituation consists of placing all rats from one cage together in the empty test arena for one hour for three days including the day before the test day.
Pairs of rats, weight matched (15-20 g) and unfamiliar to each other, receiving either no treatment (n=70 “conspecific” rats) or different treatments (PCP and Vehicle; n=10 “tested” rats or PCP+Drug; n=50 “tested” rats) were placed in the test arena together for 10 min and behaviour assessed as described below.
An inanimate object such as an unopened drinks can is also placed in the centre of the arena to measure any differences in interaction of the test animal with an unfamiliar animal as opposed to an unfamiliar object. After each 10 minute trial, the object and arena are cleaned with 10% alcohol in an attempt to remove traces of any olfactory cues. All testing is carried out under standard room illumination levels (70 cd/m2).
Behaviour in both trials was recorded on video for subsequent blind scoring. A behavioural scoring software program (Hindsight, Scientific programming services) is used to score the following parameters: • Investigative sniffing behaviour: sniffing the conspecific's snout or parts of the body including the anogenital region; • Following: rat moves after the conspecific i.e. a vehicle treated rat of the same species, around the arena; • Avoidances: actively turning away when approached by the conspecific animal; • Investigation of object: exploration of object placed in centre of the arena; and • Locomotor activity is recorded by counting the total number of sectors (i.e. lines) crossed by the test rat. Results

PCP-treated rats [3] = settings: background statement; cited from earlier work

Structure (SMILES): Cc1nc2n(c(=O)c1CCN1CCC(c3noc4cc(F)ccc34)CC1)CCCC2 [risperidone, reference compound]
- time spent investigating two identical objects in Trial 1 (FIG. 16A) (PCP-treated rats [1]): no real preference
- PCP effects on social interaction (sniffing, following, avoiding) (FIG. 18) (PCP-treated rats [2]; risperidone 0.1 mg/kg i.p.): reverse these effects in a statistically significant manner
- time spent following the other rat (FIG. 18B) (PCP-treated rats [2]; risperidone 0.1 mg/kg, time increased over PCP alone): not seen to be significant
- PCP-induced deficit in the novel object recognition (NOR) test (PCP-treated rats [3]): can attenuate the deficit
